Values quoted from earlier work in patent JP2011132186A, “ホルモン不応性前立腺癌治療法及び治療効果予測方法” (University of Tokushima NUC, priority 2009, dated 2011).

Test system: hormone-refractory prostate cancer [ホルモン不応性前立腺癌]
Conditions: large phase III comparative trial in Europe and USA

SMILES	median survival time (OS)
CC(=O)O[C@@]12CO[C@@H]1C[C@H](O)[C@@]1(C)C(=O)[C@H](O)C3=C(C)[C@@H](OC(=O)[C@H](O)[C@@H](NC(=O)OC(C)(C)C)c4ccccc4)C[C@@](O)([C@@H](OC(=O)c4ccccc4)[C@H]21)C3(C)C [ドセタキセル]	18.9 months
O=C1c2c(O)ccc(O)c2C(=O)c2c(NCCNCCO)ccc(NCCNCCO)c21 [ミトキサントロン]	16.5 months
